DBAASP
Converted amounts (≈) assume the structure as drawn.

Legend:
Test in all cases: ≥ marks a high value that may be exact or a test limit, other limits are often not marked, values filed in µg/mL are converted to µM
Bacillus subtilis = tested on: Bacillus subtilis
Escherichia coli = tested on: Escherichia coli
Klebsiella pneumoniae = tested on: Klebsiella pneumoniae
Micrococcus luteus = tested on: Micrococcus luteus
Proteus mirabilis = tested on: Proteus mirabilis
Pseudomonas aeruginosa = tested on: Pseudomonas aeruginosa
Salmonella typhimurium = tested on: Salmonella typhimurium
Shigella dysenteriae = tested on: Shigella dysenteriae
Staphylococcus aureus = tested on: Staphylococcus aureus
[1] = tested on: Staphylococcus epidermidis
[2] = tested on: Escherichia coli DH5alpha
[3] = tested on: Klebsiella pneumoniae ATCC 10031
[4] = tested on: Salmonella enterica subsp. enterica serovar Typhimurium ATCC 14028
[5] = tested on: Candida albicans ATCC 2002
[6] = tested on: Escherichia coli ATCC 25922
[7] = tested on: Staphylococcus aureus ATCC 2592
[8] = tested on: Bacillus subtilis ATCC 6051
[9] = tested on: Pseudomonas aeruginosa ATCC 27853
[10] = tested on: Staphylococcus aureus ATCC 25923
[11] = tested on: Micrococcus luteus ATCC 9341
Bacillus cereus = tested on: Bacillus cereus
Escherichia coli JW0013 = tested on: Escherichia coli JW0013

## CC(C)C[C@H](NC(=O)[C@H](C)NC(=O)CNC(=O)[C@H](CC(C)C)NC(=O)[C@@H](N)Cc1ccccc1)C(=O)N[C@@H](Cc1ccccc1)C(=O)N[C@@H](CCCCN)C(=O)N[C@H](C(=O)N[C@@H](C)C(=O)N[C@@H](CO)C(=O)N[C@@H](Cc1c[nH]c2ccccc12)C(=O)O)C(C)C [FLGALFKVASW]
Bacillus subtilis
  MIC: ≥ 161 µM
Escherichia coli
  MIC: > 161 µM
Klebsiella pneumoniae
  MIC: > 161 µM
Micrococcus luteus
  MIC: ≥ 161 µM
Proteus mirabilis
  MIC: ≥ 161 µM
Pseudomonas aeruginosa
  MIC: > 161 µM
Salmonella typhimurium
  MIC: ≥ 161 µM
Shigella dysenteriae
  MIC: ≥ 161 µM
Staphylococcus aureus
  MIC: > 161 µM
[1]
  MIC: ≥ 161 µM

## CC(C)C[C@H](NC(=O)CNC(=O)[C@H](C)NC(=O)[C@H](CC(C)C)NC(=O)[C@H](CC(C)C)NC(=O)[C@H](CCCCN)NC(=O)[C@H](CC(C)C)NC(=O)[C@@H](N)Cc1ccccc1)C(=O)N[C@@H](CC(C)C)C(=O)N[C@@H](CCCCN)C(=O)N[C@@H](CC(N)=O)C(=O)N[C@@H](Cc1ccccc1)C(=O)N[C@@H](C)C(=O)O [FLKLLAGLLKNFA]
[2]
  MIC: ≥ 69.1 µM
[3]
  MIC: ≥ 34.5 µM
[4]
  MIC: > 69.1 µM

## CC[C@H](C)[C@@H]1NC(=O)[C@H](CCCCN)NC(=O)[C@@H](NC(=O)[C@H](Cc2ccccc2)NC(=O)[C@H](CC(C)C)NC(=O)[C@H](CCCCN)NC(=O)[C@@H]2CCCN2C(=O)[C@H](CC(C)C)NC(=O)[C@H](Cc2ccccc2)NC(=O)[C@H](CC(N)=O)NC(=O)[C@H](C)NC(=O)[C@H](C)NC(=O)[C@H](CC(C)C)NC(=O)[C@H](CO)NC(=O)[C@@H](NC(=O)[C@H](C)NC(=O)[C@H](CC(C)C)NC(=O)[C@@H]2CCCN2C(=O)[C@H](CC(C)C)NC(=O)[C@@H](N)Cc2ccccc2)C(C)C)CSSC[C@@H](C(=O)O)NC(=O)[C@H](CCCCN)NC(=O)[C@H](CCCCN)NC(=O)[C@H]([C@@H](C)O)NC1=O [FLPLAVSLAANFLPKLFCKITKKC]
[5]
  MIC: 2.81 µM (≈ 7.49 µg/mL)
[6]
  MIC: 2.44 µM (≈ 6.5 µg/mL)
Shigella dysenteriae
  MIC: 0.825 µM (≈ 2.2 µg/mL)
[7]
  MIC: 2.06 µM (≈ 5.5 µg/mL)

## CC(C)C[C@H](NC(=O)[C@H](C)NC(=O)[C@H](Cc1c[nH]c2ccccc12)NC(=O)[C@H](CC(C)C)NC(=O)[C@@H](N)Cc1ccccc1)C(=O)N[C@@H](Cc1ccccc1)C(=O)N[C@@H](CCCCN)C(=O)N[C@H](C(=O)N[C@@H](C)C(=O)N[C@@H](CO)C(=O)N[C@@H](CCCCN)C(=O)O)C(C)C [FLWALFKVASK]
Bacillus subtilis
  MIC: 9.54 µM (≈ 12.5 µg/mL)
Escherichia coli
  MIC: 76.4 µM (≈ 100 µg/mL)
Klebsiella pneumoniae
  MIC: 76.4 µM (≈ 100 µg/mL)
Micrococcus luteus
  MIC: ≥ 38.2 µM
Proteus mirabilis
  MIC: ≥ 153 µM
Pseudomonas aeruginosa
  MIC: > 153 µM
Salmonella typhimurium
  MIC: ≥ 153 µM
Shigella dysenteriae
  MIC: ≥ 153 µM
Staphylococcus aureus
  MIC: 9.54 µM (≈ 12.5 µg/mL)
[1]
  MIC: 19.1 µM (≈ 25 µg/mL)

## CC[C@H](C)[C@H](NC(=O)[C@H](CC(N)=O)NC(=O)[C@H](Cc1ccccc1)NC(=O)[C@H](CC(C)C)NC(=O)CN)C(=O)N[C@H](C(=O)N[C@@H](CCCCN)C(=O)N[C@@H](CCCCN)C(=O)N[C@H](C(=O)N[C@H](C(=O)NCC(=O)N[C@@H](CCCCN)C(=O)N[C@@H](CC(C)C)C(=O)N[C@@H](CCCN=C(N)N)C(=O)O)[C@@H](C)CC)[C@@H](C)O)[C@@H](C)CC [GLFNIIKKTIGKLR]
[8]
  MIC: ≥ 40 µM
[6]
  MIC: 40 µM (≈ 64 µg/mL)
[9]
  MIC: 20 µM (≈ 32 µg/mL)
[10]
  MIC: 160 µM (≈ 256 µg/mL)

## CC[C@H](C)[C@H](N)C(=O)N[C@@H](CC(C)C)C(=O)N1CCC[C@H]1C(=O)N[C@@H](Cc1c[nH]c2ccccc12)C(=O)N[C@@H](CCCCN)C(=O)N[C@@H](Cc1c[nH]c2ccccc12)C(=O)N1CCC[C@H]1C(=O)N[C@@H](Cc1c[nH]c2ccccc12)C(=O)N[C@@H](Cc1c[nH]c2ccccc12)C(=O)N1CCC[C@H]1C(=O)N[C@@H](Cc1c[nH]c2ccccc12)C(=O)N[C@@H](CCCCN)C(=O)N[C@@H](CCCCN)C(N)=O [ILPWKWPWWPWKK]
[6]
  MIC: 16 µM (≈ 29.6 µg/mL)
[11]
  MIC: 0.4 µM (≈ 0.74 µg/mL)

## CSCC[C@H](NC(=O)[C@H](CO)NC(=O)[C@H](Cc1ccc(O)cc1)NC(=O)[C@H](C)NC(=O)[C@@H](N)CCCCN)C(=O)N1CCC[C@H]1C(=O)N[C@@H](CCCN=C(N)N)C(=O)N[C@H]1CSSC[C@@H](C(=O)N[C@@H](Cc2c[nH]c3ccccc23)C(=O)N[C@@H](CC(C)C)C(N)=O)NC(=O)[C@H](CC(C)C)NC(=O)[C@H](C(C)C)NC(=O)[C@H](C)NC(=O)[C@H](CCCN=C(N)N)NC(=O)[C@H](Cc2ccccc2)NC(=O)[C@H](CC(C)C)NC(=O)[C@H](Cc2ccc(O)cc2)NC(=O)[C@H](CCCCN)NC1=O [KAYSMPRCKYLFRAVLCWL]
Bacillus cereus
  MIC: 21.3 µM (≈ 49.9 µg/mL)
[5]
  MIC: ≥ 42.6 µM
[6]
  MIC: 10.6 µM (≈ 25 µg/mL)
Pseudomonas aeruginosa
  MIC: 10.6 µM (≈ 25 µg/mL)
Shigella dysenteriae
  MIC: 5.32 µM (≈ 12.5 µg/mL)
[7]
  MIC: 5.32 µM (≈ 12.5 µg/mL)

## CC[C@H](C)[C@H](NC(=O)[C@H](CCCN=C(N)N)NC(=O)[C@H](CCCN=C(N)N)NC(=O)[C@@H]1CCCN1C(=O)[C@@H]1CCCN1C(=O)[C@H](CCCN=C(N)N)NC(=O)[C@@H]1CCCN1C(=O)[C@H](CCCN=C(N)N)NC(=O)[C@@H]1CCCN1C(=O)[C@H](CC(C)C)NC(=O)[C@H](Cc1ccc(O)cc1)NC(=O)[C@H](Cc1cnc[nH]1)NC(=O)[C@H](CCCCN)NC(=O)[C@H](CCCCN)NC(=O)[C@H](CC(=O)O)NC(=O)[C@@H](N)C(C)C)C(=O)N[C@@H](Cc1ccc(O)cc1)C(=O)N[C@@H](CC(N)=O)C(=O)N[C@@H](CCCN=C(N)N)C(N)=O [VDKKHYLPRPRPPRRIYNR]
Escherichia coli JW0013
  MIC: 0.975 µM (≈ 2.4 µg/mL)

## CC[C@H](C)[C@H](NC(=O)[C@H](CCCN=C(N)N)NC(=O)[C@H](CCCN=C(N)N)NC(=O)[C@@H]1CCCN1C(=O)[C@@H]1CCCN1C(=O)[C@H](CCCN=C(N)N)NC(=O)[C@@H]1CCCN1C(=O)[C@H](CCCN=C(N)N)NC(=O)[C@@H]1CCCN1C(=O)[C@H](CCCCN)NC(=O)[C@H](CCCN=C(N)N)NC(=O)[C@@H]1CCCN1C(=O)[C@H](CCCCN)NC(=O)[C@H](CCCCN)NC(=O)[C@H](CC(=O)O)NC(=O)[C@@H](N)C(C)C)C(=O)N[C@@H](Cc1ccc(O)cc1)C(=O)N[C@@H](CC(N)=O)C(=O)N[C@@H](CCCN=C(N)N)C(N)=O [VDKKPRKPRPRPPRRIYNR]
Escherichia coli JW0013
  MIC: 1.36 µM (≈ 3.3 µg/mL)

## CC[C@H](C)[C@H](NC(=O)[C@H](CCCN=C(N)N)NC(=O)[C@H](CCCN=C(N)N)NC(=O)[C@@H]1CCCN1C(=O)[C@@H]1CCCN1C(=O)[C@H](CCCN=C(N)N)NC(=O)[C@@H]1CCCN1C(=O)[C@H](CCCN=C(N)N)NC(=O)[C@@H]1CCCN1C(=O)[C@H](CCCN=C(N)N)NC(=O)[C@H](CCCN=C(N)N)NC(=O)[C@@H]1CCCN1C(=O)[C@H](CCCCN)NC(=O)[C@H](CCCCN)NC(=O)[C@H](CC(=O)O)NC(=O)[C@@H](N)C(C)C)C(=O)N[C@@H](Cc1ccc(O)cc1)C(=O)N[C@@H](CC(N)=O)C(=O)N[C@@H](CCCN=C(N)N)C(N)=O [VDKKPRRPRPRPPRRIYNR]
Escherichia coli JW0013
  MIC: 1.34 µM (≈ 3.3 µg/mL)

## CC[C@H](C)[C@H](NC(=O)[C@H](CCCN=C(N)N)NC(=O)[C@H](CCCN=C(N)N)NC(=O)[C@@H]1CCCN1C(=O)[C@@H]1CCCN1C(=O)[C@H](CCCN=C(N)N)NC(=O)[C@H](CCCCN)NC(=O)[C@H](CCCN=C(N)N)NC(=O)[C@@H]1CCCN1C(=O)[C@H](CCCCN)NC(=O)[C@H](Cc1ccc(O)cc1)NC(=O)[C@@H]1CCCN1C(=O)[C@H](CCCCN)NC(=O)[C@H](CCCCN)NC(=O)[C@H](CC(=O)O)NC(=O)[C@@H](N)C(C)C)C(=O)N[C@@H](Cc1ccc(O)cc1)C(=O)N[C@@H](CC(N)=O)C(=O)N[C@@H](CCCN=C(N)N)C(N)=O [VDKKPYKPRKRPPRRIYNR]
Escherichia coli JW0013
  MIC: 0.973 µM (≈ 2.4 µg/mL)

## CC[C@H](C)[C@H](NC(=O)[C@H](CCCN=C(N)N)NC(=O)[C@H](CCCN=C(N)N)NC(=O)[C@@H]1CCCN1C(=O)[C@@H]1CCCN1C(=O)[C@H](CCCN=C(N)N)NC(=O)[C@H](CCCN=C(N)N)NC(=O)[C@H](CCCN=C(N)N)NC(=O)[C@@H]1CCCN1C(=O)[C@H](CC(C)C)NC(=O)[C@H](Cc1ccc(O)cc1)NC(=O)[C@@H]1CCCN1C(=O)[C@H](CCCCN)NC(=O)[C@H](CCCCN)NC(=O)[C@H](CC(=O)O)NC(=O)[C@@H](N)C(C)C)C(=O)N[C@@H](Cc1ccc(O)cc1)C(=O)N[C@@H](CC(N)=O)C(=O)N[C@@H](CCCN=C(N)N)C(N)=O [VDKKPYLPRRRPPRRIYNR]
Escherichia coli JW0013
  MIC: 0.685 µM (≈ 1.7 µg/mL)
